# ChEMBL document CHEMBL1201862, “PubChem BioAssay data set” (2004)
#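 The compound was tested at five concentrations on cells cultured in 96-well plates, with a 48-hour exposure period. GI50 is the concentration that inhibits growth by half.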 The source made the active and inactive calls. No stated cut-off is given here; in the data, active = GI50 up to about 1.1 µM and inactive = higher.
# Key:
# Test in all cases: NCI-60 cell line screen, 48 h
# 786-0 = test system: 786-0
# A549 = test system: A549
# ACHN = test system: ACHN
# BT-549 = test system: BT-549
# CAKI-1 = test system: CAKI-1
# CCRF-CEM = test system: CCRF-CEM
# COLO 205 = test system: COLO 205
# DU-145 = test system: DU-145
# EKVX = test system: EKVX
# HCC 2998 = test system: HCC 2998
# HCT-116 = test system: HCT-116
# HCT-15 = test system: HCT-15
# HL-60 = test system: HL-60
# HOP-62 = test system: HOP-62
# HT-29 = test system: HT-29
# Hs-578T = test system: Hs-578T
# IGROV-1 = test system: IGROV-1
# K562 = test system: K562
# KM12 = test system: KM12
# LOX IMVI = test system: LOX IMVI
# M14 = test system: M14
# MCF7 = test system: MCF7
# MDA-MB-231 = test system: MDA-MB-231
# MDA-MB-435 = test system: MDA-MB-435
# MDA-N = test system: MDA-N
# MOLT-4 = test system: MOLT-4
# Malme-3M = test system: Malme-3M
# NCI-H226 = test system: NCI-H226
# NCI-H23 = test system: NCI-H23
# NCI-H522 = test system: NCI-H522
# NCI/ADR-RES = test system: NCI/ADR-RES
# OVCAR-3 = test system: OVCAR-3
# OVCAR-4 = test system: OVCAR-4
# OVCAR-5 = test system: OVCAR-5
# OVCAR-8 = test system: OVCAR-8
# PC-3 = test system: PC-3
# RPMI-8226 = test system: RPMI-8226
# RXF 393 = test system: RXF 393
# SF-268 = test system: SF-268
# SF-295 = test system: SF-295
# SF-539 = test system: SF-539
# SK-MEL-28 = test system: SK-MEL-28
# SK-MEL-2 = test system: SK-MEL-2
# SK-MEL-5 = test system: SK-MEL-5
# SK-OV-3 = test system: SK-OV-3
# SN12C = test system: SN12C
# SNB-19 = test system: SNB-19
# SNB-75 = test system: SNB-75
# SW-620 = test system: SW-620
# T47D = test system: T47D
# TK-10 = test system: TK-10
# U-251 = test system: U-251
# UACC-257 = test system: UACC-257
# UACC-62 = test system: UACC-62
# UO-31 = test system: UO-31
structure (smiles),measurement,setting,value
CC(C)[C@H]1NC(=O)[C@H]2N=C(O[C@@H]2C)[C@@H]2CCCN2C(=O)[C@H](Cc2ccccc2)NC(=O)[C@@H]2COC(=N2)[C@@H](Cc2ccccc2)NC(=O)[C@@H]2COC1=N2,GI50,786-0,> 100 µM (inactive)
same,GI50,A549,> 100 µM (inactive)
same,GI50,ACHN,> 100 µM (inactive)
same,GI50,BT-549,> 100 µM (inactive)
same,GI50,CAKI-1,> 100 µM (inactive)
same,GI50,CCRF-CEM,> 100 µM (inactive)
same,GI50,COLO 205,> 100 µM (inactive)
same,GI50,DU-145,> 100 µM (inactive)
same,GI50,EKVX,> 100 µM (inactive)
same,GI50,HCC 2998,> 100 µM (inactive)
same,GI50,HCT-116,> 100 µM (inactive)
same,GI50,HCT-15,> 100 µM
same,GI50,HL-60,> 100 µM (inactive)
same,GI50,HOP-62,> 100 µM (inactive)
same,GI50,HT-29,> 100 µM (inactive)
same,GI50,Hs-578T,> 100 µM (inactive)
same,GI50,IGROV-1,> 100 µM (inactive)
same,GI50,K562,> 100 µM (inactive)
same,GI50,KM12,> 100 µM (inactive)
same,GI50,LOX IMVI,> 100 µM (inactive)
same,GI50,M14,> 100 µM (inactive)
same,GI50,MCF7,> 100 µM (inactive)
same,GI50,MDA-MB-231,> 100 µM (inactive)
same,GI50,MDA-MB-435,> 100 µM (inactive)
same,GI50,MDA-N,> 100 µM (inactive)
same,GI50,MOLT-4,> 100 µM (inactive)
same,GI50,Malme-3M,> 100 µM (inactive)
same,GI50,NCI-H226,> 100 µM (inactive)
same,GI50,NCI-H23,> 100 µM (inactive)
same,GI50,NCI-H522,> 100 µM (inactive)
same,GI50,NCI/ADR-RES,> 100 µM (inactive)
same,GI50,OVCAR-3,> 100 µM (inactive)
same,GI50,OVCAR-4,> 100 µM (inactive)
same,GI50,OVCAR-5,> 100 µM (inactive)
same,GI50,OVCAR-8,> 100 µM (inactive)
same,GI50,PC-3,> 100 µM (inactive)
same,GI50,RPMI-8226,> 100 µM (inactive)
same,GI50,RXF 393,> 100 µM (inactive)
same,GI50,SF-268,> 100 µM (inactive)
same,GI50,SF-295,> 100 µM (inactive)
same,GI50,SF-539,> 100 µM (inactive)
same,GI50,SK-MEL-28,> 100 µM (inactive)
same,GI50,SK-MEL-2,> 100 µM (inactive)
same,GI50,SK-MEL-5,> 100 µM (inactive)
same,GI50,SK-OV-3,> 100 µM (inactive)
same,GI50,SN12C,> 100 µM (inactive)
same,GI50,SNB-19,> 100 µM (inactive)
same,GI50,SNB-75,0.428 µM (active)
same,GI50,SW-620,> 100 µM (inactive)
same,GI50,T47D,> 100 µM (inactive)
same,GI50,TK-10,> 100 µM (inactive)
same,GI50,U-251,> 100 µM (inactive)
same,GI50,UACC-257,> 100 µM (inactive)
same,GI50,UACC-62,> 100 µM (inactive)
same,GI50,UO-31,> 100 µM (inactive)
